The subject of one data set is DENV-2. As to the kind of experiment: microbe, parasite or virus in culture. Conditions: for SI (selectivity), DENV-2 HepG2 assay: SI=CC50/EC50. Format: cell-based, DENV-2 16681.
The subject of another data set is SARS-CoV-2. The data set is described as follows: microbe, parasite or virus in culture. Format: cell-based, SARS-CoV-2 strain USA-WA1/2020.
The subject of another data set is RSV A2. As to the kind of experiment: microbe, parasite or virus in culture. Format: cell-based.
A further data set concerns HRV 14. As to the kind of experiment: microbe, parasite or virus in culture. Format: cell-based, Human Rhinovirus 14 strain 1059.
For the next data set, the system named is HRV 16. As to the kind of experiment: microbe, parasite or virus in culture. Format: cell-based, Human Rhinovirus 16 strain 11757.
In a further data set the test system is ZIKV. As to the kind of experiment: microbe, parasite or virus in culture. The data set is classed as cell-based, ZIKV MR766.
In a further data set the test system is YFV. The data set is described as follows: microbe, parasite or virus in culture. The data set is classed as cell-based, YFV strain 17D.
The next data set deals with CHIKV. The data set is described as follows: microbe, parasite or virus in culture. Format: cell-based, CHIKV strain 181/25.
The next data set deals with HCoV-OC43. The data set is described as follows: microbe, parasite or virus in culture. Format: cell-based, Human Coronavirus.
In another data set the test system is HCoV-229E. As to the kind of experiment: microbe, parasite or virus in culture. Format: cell-based.
In the next data set the test system is HCMV. As to the kind of experiment: HCMV/HFF antiviral assay. Conditions: Human betaherpesvirus 5, HFF. Format: cell-based.
Another data set in a line: Cytotoxicity, HFF. The data set is classed as cell-based. The conditions noted are these: human, hff cells; read-out: HCMV/HFF CC50.
In the next data set the test system is SARS-CoV-1. The data set is classed as cell-based.
Another data set deals with MERS-CoV. Format: cell-based, MERS-CoV EMC.
The next data set relates to MEV. As to the kind of experiment: Antiviral activity against MEV. The data set is classed as cell-based, MEV CC. Conditions: FIG. 1. Here is the method:
(§1) All other antiviral assays were run at Utah State/Justin Julander through NIAID Preclinical Services. The following virus strains and cell lines were used:
(§2) Compounds were added to cells prior to addition of virus at an appropriate MOI to cause visible CPE. […] For compounds with an SI.5, a virus yield reduction assay was conducted, where supernatant collected from the CPE assay was titered for virus. The EC90 was calculated as the amount of compound needed to reduce the virus titer by 1 log 10.

A further data set relates to Flu A H1N1. The data set is described as follows: Antiviral activity against Flu A H1N1. Format: cell-based, Flu A H1N1 California/07/2009. The conditions noted are these: Flu A H1N1, FIG. 1. Here is the method:
as §1, §2

A further data set has as its system Polio PV-1. Format: cell-based, PV-1 CHAT.
The next data set concerns Polio PV-3. The data set is classed as cell-based, PV-3 WM-3.
The test system of a further data set is COXV-B3. As to the kind of experiment: Antiviral activity against COXV-B3. Conditions: COXV-B3, FIG. 1. Format: cell-based, COXV-B3 HA 201933. Here is the method:
as §1, §2

Data set [1] can be described thus: in vitro. Conditions: human, hepg2 cells.
The nature of data set [2]: in vitro. Conditions: human, hela-ace2 cells.
Data set [3] in a line: in vitro. The conditions noted are these: human, hep2 cells.
Data set [4] is described as follows: in vitro. The conditions noted are these: human, h1 hela cells.
A short description of data set [5]: in vitro. Conditions: human, hct-8 cells.
The nature of data set [6]: in vitro. Conditions: human, mrc5 cells.
Another data set concerns DENV. The conditions noted are these: cited from earlier work.
For data set [7] the following is noted: cited from earlier work.
The nature of data set [8]: Cytotoxicity from screening. The data set is classed as cell-based.

These results are taken from patent publication US20260325561A1, “4'-SUBSTITUTED NUCLEOSIDES AND NUCLEOTIDES AS ANTIVIRAL AGENTS” (THE SCRIPPS RESEARCH INSTITUTE, priority 2023, published 2026).

Consider `Nc1ncnc2c1ccn2[C@@H]1O[C@](F)(CO)[C@@H](O)[C@H]1O` [Example 1, (2S,3S,4R,5R)-5-(4-amino-7H-pyrrolo[2,3-d]pyrimidin-7-yl)-2-fluoro-2-(hydroxymethyl)tetrahydrofuran-3,4-diol], for which the “activities and selectivity vs known compounds with the same MOA, DENV” value with DENV-2 (DENV) is “improved activities and selectivity”. In addition, the “activities and selectivity compared to tubercidin and NITD-008” value with DENV-2 (DENV2 HepG2 assay) was “improved activities and selectivity compared to tubercidin and NITD-008”. In the data set with DENV-2 (DENV-2, FIG. 1), the “efficacy vs RDV parent nucleosides and N-hydroxycytidine, DENV-2” value is “more efficacious than RDV parent nucleosides and N-hydroxycytidine”. In addition, the EC50 is less than 100 nM in the data set on DENV-2 (Dengue virus, DENV2, HepG2, 24 h, read-out: DENV-2 / HepG2 EC50); less than 100 nM in the data set on SARS-CoV-2 (Severe acute respiratory syndrome coronavirus 2, HeLa-ACE2, 24 h, read-out: SARS-CoV-2 / HeLa-ACE2 EC50); less than 100 nM with RSV A2 (human respiratory syncytial virus, HEp-2, 72 h, read-out: RSV A2 / Hep2 EC50); 100 to 1000 nM with HRV 14 (Rhinovirus B, H1-HeLa, 48 h, read-out: HRV / H1 HeLa B 14 EC50); 100 to 1000 nM in the data set on HRV 16 (Rhinovirus A, H1-HeLa, 48 h, read-out: HRV / H1 HeLa A16 EC50); less than 100 nM in the data set on ZIKV (Zika virus, HepG2, 24 h, read-out: ZIKV / HepG2 EC50). Moreover, the EC50 in the data set with YFV (Yellow fever virus, HepG2, 24 h, read-out: YFV / HepG2 EC50) is less than 100 nM; in the data set with CHIKV (Chikungunya virus, HepG2, 24 h, read-out: CHIKV / HepG2 EC50) it was less than 100 nM; in the data set with HCoV-OC43 (Betacoronavirus 1, OC43, HCT-8, 48 h, read-out: HCoV-OC43/HCT-8 EC50), 100 to 1000 nM; in the data set with HCoV-229E (Human coronavirus 229E, MRC5, 120 h, read-out: HCoV-229E/MRC5 EC50), 100 to 1000 nM; in the data set on HCMV, 1 to 10 µM. Also, the “activities and selectivity vs known compounds with the same MOA, SARS-CoV-2” value in the data set with SARS-CoV-2 (SARS-CoV-2) was “improved activities and selectivity”. Moreover, the “efficacy vs RDV parent nucleosides and N-hydroxycytidine, SARS-CoV-2” value in the data set with SARS-CoV-2 (SARS-CoV-2, FIG. 1) was “more efficacious than RDV parent nucleosides and N-hydroxycytidine”. The “efficacy vs RDV parent nucleosides and N-hydroxycytidine, RSV A2” value with RSV A2 (RSV A2, FIG. 1) is “more efficacious than RDV parent nucleosides and N-hydroxycytidine”. Further, the “efficacy vs RDV parent nucleosides and N-hydroxycytidine, HRV14” value with HRV 14 (HRV14, FIG. 1) was “more efficacious than RDV parent nucleosides and N-hydroxycytidine”. Also, the “efficacy vs RDV parent nucleosides and N-hydroxycytidine, HRV16” value in the data set on HRV 16 (HRV16, FIG. 1) was “more efficacious than RDV parent nucleosides and N-hydroxycytidine”. In addition, the “efficacy vs RDV parent nucleosides and N-hydroxycytidine, ZIKV” value in the data set on ZIKV (ZIKV, FIG. 1) was “more efficacious than RDV parent nucleosides and N-hydroxycytidine”. The “efficacy vs RDV parent nucleosides and N-hydroxycytidine, YFV” value in the data set with YFV was “more efficacious than RDV parent nucleosides and N-hydroxycytidine”. The “efficacy vs RDV parent nucleosides and N-hydroxycytidine, CHIKV” value in the data set on CHIKV (alphavirus CHIKV, FIG. 1) is “more efficacious than RDV parent nucleosides and N-hydroxycytidine”. Also, the “efficacy vs RDV parent nucleosides and N-hydroxycytidine, HCoV-OC43” value in the data set on HCoV-OC43 (HCoV-OC43, FIG. 1) is “more efficacious than RDV parent nucleosides and N-hydroxycytidine”. The “efficacy vs RDV parent nucleosides and N-hydroxycytidine, HCoV-229E” value in the data set on HCoV-229E (HCoV-229E, FIG. 1) is “more efficacious than RDV parent nucleosides and N-hydroxycytidine”. The CC50 lay within 1 to 10 µM in “Cytotoxicity, HFF”; 1 to 10 µM in “in vitro [3]”; 1 to 10 µM in the data set “in vitro [4]”; 1 to 10 µM in the data set “in vitro [5]”; 10 to 99 µM in “in vitro [6]”. In the data set with SARS-CoV-1, the “efficacy vs RDV parent nucleosides and N-hydroxycytidine, SARS-CoV-1” value is “more efficacious than RDV parent nucleosides and N-hydroxycytidine”. In addition, the “efficacy vs RDV parent nucleosides and N-hydroxycytidine, MERS-CoV” value in the data set on MERS-CoV is “more efficacious than RDV parent nucleosides and N-hydroxycytidine”. Also, in the data set with MEV, the “efficacy vs RDV parent nucleosides and N-hydroxycytidine, MEV” value was “more efficacious than RDV parent nucleosides and N-hydroxycytidine”. The “efficacy vs RDV parent nucleosides and N-hydroxycytidine, Flu A H1N1” value with Flu A H1N1 was “more efficacious than RDV parent nucleosides and N-hydroxycytidine”. Further, the “efficacy vs RDV parent nucleosides and N-hydroxycytidine, Polio PV-1” value with Polio PV-1 was “more efficacious than RDV parent nucleosides and N-hydroxycytidine”. For the same compound, the “efficacy vs RDV parent nucleosides and N-hydroxycytidine, Polio PV-3” value in the data set with Polio PV-3 is “more efficacious than RDV parent nucleosides and N-hydroxycytidine”. Besides, the “efficacy vs RDV parent nucleosides and N-hydroxycytidine, COXV-B3” value in the data set on COXV-B3 was “more efficacious than RDV parent nucleosides and N-hydroxycytidine”. In “in vitro [1]”, this compound yielded a CC50 at 72 h of 1 to 10 µM. The compound also showed a CC50 at 24 h in “in vitro [2]” of 1 to 10 µM.
With `C#C[C@@]1(O)[C@H](O)[C@@H](CO)O[C@H]1n1ccc2c(N)ncnc21` [NITD-008, reference compound], the “SI (selectivity), DENV-2 HepG2 assay” value in the data set on DENV-2 turned out to be 52. In addition, the “selectivity compared to tubercidin” value with DENV-2 (DENV-2 HepG2 assay, FIG. 1) was “improved selectivity compared to tubercidin”. The “efficacy in DENV-infected mouse model” value with DENV is given as “good efficacy”. In addition, the “two-week tox study outcome” value in data set [7] is given as “failed”.
Regarding `Nc1ncnc2c1ccn2[C@@H]1O[C@H](CO)[C@@H](O)[C@H]1O` [Tubercidin, reference compound], in the data set with DENV-2 (DENV, screening), the “antiviral potency against DENV” value is on record as “high antiviral potency”. For the same compound, the “SI (selectivity), DENV-2 HepG2 assay” value in the data set on DENV-2 is given as 2. Also, in the data set with SARS-CoV-2 (SARS-CoV-2, screening), the “antiviral potency against SARS-CoV-2” value was “high antiviral potency”. The cytotoxicity from screening entry in data set [8] is on record as “significant cytotoxicity”.
